Organism: Rattus norvegicus
Experiment: Calcium antagonistic activity assessed against calcium-induced constriction of potassium-depolarized rat aorta.
Assay type: functional
Settings: for Kb: Rattus norvegicus, Aorta, read-out: pA2 (converted)

Structure (SMILES)	Kb	pA2
O=C(CCCCCN1CCN(c2ccccc2)CC1)N[C@H]1c2ccccc2SC[C@@H]2CCCC[C@H]21	30.2 nM	–
O=C(CCN1CCN(c2ccccc2)CC1)N[C@H]1c2ccccc2SC[C@@H]2CCCC[C@H]21	41.7 nM	–
Cc1ccc(N2CCN(CCCC(=O)N[C@H]3c4ccccc4SC[C@@H]4CCCC[C@H]43)CC2)cc1	70.8 nM	–
O=C(CCCN1CCN(C/C=C/c2ccccc2)CC1)N[C@H]1c2ccccc2SC[C@@H]2CCCC[C@H]21	75.9 nM	–
O=C(CN1CCN(c2ccccc2)CC1)N[C@H]1c2ccccc2SC[C@@H]2CCCC[C@H]21	105 nM	–
O=C(CCCN1CCN(c2ccc(F)cc2)CC1)N[C@H]1c2ccccc2OC[C@@H]2CCCC[C@H]21	138 nM	–
O=C(CCCN1CCN(Cc2ccc([N+](=O)[O-])cc2)CC1)N[C@H]1c2ccccc2SC[C@@H]2CCCC[C@H]21	19.1 nM	–
O=C(CCCN1CCN(c2ccc(F)cc2)CC1)N[C@@H]1c2ccccc2SC[C@@H]2CCCC[C@@H]21	18.6 nM	–
O=C(CCCN1CCN(C(c2ccccc2)c2ccccc2)CC1)N[C@H]1c2ccccc2SC[C@@H]2CCCC[C@H]21	40.7 nM	–
O=C(CCCN1CCN(Cc2ccccc2)CC1)N[C@H]1c2ccccc2SC[C@@H]2CCCC[C@H]21	15.8 nM	–
O=C(CCCN1CCN(c2ccc(O)cc2)CC1)N[C@H]1c2ccccc2SC[C@@H]2CCCC[C@H]21	69.2 nM	–
O=C(CCCN1CCN(c2ccc(Cl)cc2)CC1)N[C@H]1c2ccccc2SC[C@@H]2CCCC[C@H]21	15.1 nM	–
O=C(CCCN1CCN(c2ccc(F)cc2)CC1)N[C@H]1c2ccccc2SC[C@@H]2CCCC[C@H]21	6.92 nM	–
O=C(CCCN1CCN(c2ccc(F)cc2)CC1)N[C@H]1c2cc(Cl)ccc2SC[C@@H]2CCCC[C@H]21	81.3 nM	–
O=C(CCCN1CCN(c2ccc(F)cc2)CC1)N[C@H]1c2ccccc2SC[C@@H]2CCCC[C@@H]21	7.08 nM	–
O=C(CCCN1CCN(Cc2cccc(F)c2)CC1)N[C@H]1c2ccccc2SC[C@@H]2CCCC[C@H]21	30.2 nM	–
O=C(CCCN1CCN(c2ccccc2)CC1)N[C@H]1c2ccccc2SC[C@@H]2CCCC[C@H]21.O=C(O)C(=O)O	–	7.68
COc1ccccc1N1CCN(CCCC(=O)N[C@H]2c3ccccc3SC[C@@H]3CCCC[C@H]32)CC1	46.8 nM	–
O=C(CCCN1CCN(c2cccc3ccccc23)CC1)N[C@H]1c2ccccc2SC[C@@H]2CCCC[C@H]21	57.5 nM	–

Structure (SMILES)	Kb	pA2
O=C(CCCN1CCN(Cc2ccc(F)cc2)CC1)N[C@H]1c2ccccc2SC[C@@H]2CCCC[C@H]21	57.5 nM	–
O=C(CCCN1CCN(C(=O)c2ccccc2)CC1)N[C@H]1c2ccccc2SC[C@@H]2CCCC[C@H]21	97.7 nM	–
O=C(CCCN1CCN(c2ccc(F)cc2)CC1)N[C@H]1c2cc(F)ccc2SC[C@@H]2CCCC[C@H]21	77.6 nM	–
O=C(CCCN1CCN(Cc2ccc(O)cc2)CC1)N[C@H]1c2ccccc2SC[C@@H]2CCCC[C@H]21	70.8 nM	–
O=C(CCCCN1CCN(c2ccccc2)CC1)N[C@H]1c2ccccc2SC[C@@H]2CCCC[C@H]21	28.2 nM	–
O=C(CCCN1CCN(c2ccc(C(F)(F)F)cc2)CC1)N[C@H]1c2ccccc2SC[C@@H]2CCCC[C@H]21	8.91 nM	–
CN(C(=O)CCN1CCN(c2ccccc2)CC1)[C@H]1c2ccccc2SC[C@@H]2CCCC[C@H]21	148 nM	–
COc1ccc(N2CCN(CCCC(=O)N[C@H]3c4ccccc4SC[C@@H]4CCCC[C@H]43)CC2)cc1	25.1 nM	–
O=C(CCCN1CCN(c2cccc(F)c2)CC1)N[C@H]1c2ccccc2SC[C@@H]2CCCC[C@H]21	15.1 nM	–
O=C(CCCN1CCN(C2CCCCC2)CC1)N[C@H]1c2ccccc2SC[C@@H]2CCCC[C@H]21	45.7 nM	–
COc1ccc(CN2CCN(CCCC(=O)N[C@H]3c4ccccc4SC[C@@H]4CCCC[C@H]43)CC2)cc1	56.2 nM	–
COc1ccc2c(c1)[C@H](NC(=O)CCCN1CCN(c3ccc(F)cc3)CC1)[C@@H]1CCCC[C@H]1CS2	17 nM	–
c1ccc(N2CCN(CCCN[C@H]3c4ccccc4SC[C@@H]4CCCC[C@H]43)CC2)cc1	158 nM	–
O=C(CCCN1CCN(Cc2ccc(Cl)cc2)CC1)N[C@H]1c2ccccc2SC[C@@H]2CCCC[C@H]21	26.9 nM	–
O=C(CCCN1CCN(c2ccc(F)cc2)CC1)N[C@@H]1c2ccccc2SC[C@@H]2CCCC[C@H]21	26.9 nM	–
Cc1ccc2c(c1)[C@H](NC(=O)CCCN1CCN(c3ccc(F)cc3)CC1)[C@@H]1CCCC[C@H]1CS2	141 nM	–
O=C(CCCN1CCN(CCc2ccccc2)CC1)N[C@H]1c2ccccc2SC[C@@H]2CCCC[C@H]21	72.4 nM	–
O=C(CCCN1CCN(c2ccc(F)cc2)CC1)N[C@H]1c2ccccc2[S+]([O-])C[C@@H]2CCCC[C@H]21 (stereo in doubt; 48)	–	6.48
O=C(CCCN1CCN(c2ccc(F)cc2)CC1)N[C@H]1c2ccccc2[S+]([O-])C[C@@H]2CCCC[C@H]21 (stereo in doubt; 49)	324 nM	–
